Tests used:
Test in all cases: Minimal inhibitory concentration (M.I.C.), agar dilution method
Conditions in all cases: TSA, inoculum 10^7 /ml
C. freundii GN 1706 = assay type: cell-based, Citrobacter freundii
Description: (§1) (a) Determination of minimal inhibitory concentrations (Tables 1 to 8):
(§2) Procedure: agar dilution method

C. freundii GN 99 = assay type: cell-based, Citrobacter freundii
Description: as §1, §2

K. pneumoniae GN 3835 = assay type: cell-based, Klebsiella pneumoniae
Description: as §1, §2

K. pneumoniae DT = assay type: cell-based, Klebsiella pneumoniae
Description: as §1, §2

P. rettgeri TN 338 = assay type: cell-based, Proteus rettgeri
Description: as §1, §2

P. rettgeri GN4733 = assay type: cell-based, Proteus rettgeri
Description: as §1, §2

P. mirabilis GN 4359 = assay type: cell-based, Proteus mirabilis
Description: as §1, §2

S. marcescens IFO 12648 = assay type: cell-based, Serratia marcescens
Description: as §1, §2

S. marcescens TN 24 = assay type: cell-based, Serratia marcescens
Description: as §1, §2

E. coli 0-111 = assay type: cell-based, Escherichia coli
Description: The minimal inhibitory concentrations (M.I.C.) of some representative cephalosporin derivatives of this invention as produced by the procedures described in those examples and the minimal inhibitory concentrations of cephalothin [sodium 7-(2-thienylacetamido)-3-acetoxymethyl-3-cephem-4-carboxylate], cephaloridine [7-(2-thienylacetamido)-3-(1-pyridyl)methyl-3-cephem-4-carboxylic acid betaine] and cefazolin [sodium 7-(1H-tetrazol-1-yl)acetamido-3-(2-methyl-1,3,4-thiadiazol-5-yl)thiomethyl-3-cephem-4-carboxylate], which are among the clinically established and commercially available cephalosporins (as described, for example, in the New England Journal of Medicine 294, 24, 1976 and Journal of Pharmaceutical Science 64, 1899, 1975), both against various bacteria, as well as the therapeutic effects of some respresentative cephalosporin derivatives of this invention and of cephaloridine in infected mice, are shown in tables.
as §1, §2

E. cloacae TN 1282 = assay type: cell-based, Enterobacter cloacae
Description: as §1, §2

E. coli T-7 = assay type: cell-based, Escherichia coli
Description: as §1, §2

E. coli NIHJ JC-2 = assay type: cell-based, Escherichia coli
Description: as §1, §2

S. aureus 209P = assay type: cell-based, Staphylococcus aureus
Description: as §1, §2

S. aureus 1840 = assay type: cell-based, Staphylococcus aureus
Description: as §1, §2

P. morganii IFO 3168 = assay type: cell-based, Proteus morganii
Description: as §1, §2

P. vulgaris IFO 3988 = assay type: cell-based, Proteus vulgaris
Description: as §1, §2

P. vulgaris GN 4413 = assay type: cell-based, Proteus vulgaris
Description: as §1, §2

| SMILES | minimal inhibitory concentration (M.I.C.) (C. freundii GN 1706) | minimal inhibitory concentration (M.I.C.) (C. freundii GN 99) | minimal inhibitory concentration (M.I.C.) (K. pneumoniae GN 3835) | minimal inhibitory concentration (M.I.C.) (K. pneumoniae DT) | minimal inhibitory concentration (M.I.C.) (P. rettgeri TN 338) | minimal inhibitory concentration (M.I.C.) (P. rettgeri GN4733) | minimal inhibitory concentration (M.I.C.) (P. mirabilis GN 4359) | minimal inhibitory concentration (M.I.C.) (S. marcescens IFO 12648) | minimal inhibitory concentration (M.I.C.) (S. marcescens TN 24) | minimal inhibitory concentration (M.I.C.) (E. coli 0-111) | minimal inhibitory concentration (M.I.C.) (E. cloacae TN 1282) | minimal inhibitory concentration (M.I.C.) (E. coli T-7) | minimal inhibitory concentration (M.I.C.) (E. coli NIHJ JC-2) | minimal inhibitory concentration (M.I.C.) (S. aureus 209P) | minimal inhibitory concentration (M.I.C.) (S. aureus 1840) | minimal inhibitory concentration (M.I.C.) (P. morganii IFO 3168) | minimal inhibitory concentration (M.I.C.) (P. vulgaris IFO 3988) | minimal inhibitory concentration (M.I.C.) (P. vulgaris GN 4413) |
| --- | --- | --- | --- | --- | --- | --- | --- | --- | --- | --- | --- | --- | --- | --- | --- | --- | --- | --- |
| CCCNC(=O)O/N=C(\C(=O)NC1C(=O)N2C(C(=O)O)=C(COC(N)=O)CSC12)c1csc(=N)[nH]1 (stereo not drawn) [Example II - 13] | 0.78 | 0.1 | 0.2 | 0.05 | ≤ 0.012 | 0.1 | 0.1 | 6.25 | 25 | 0.05 | 6.25 | 1.56 | 0.2 | 1.56 | 3.13 | 3.13 | 0.39 | 50 |
| CC1=C(C(=O)O)N2C(=O)C(NC(=O)/C(=N\OC(=O)NC(C)C)c3csc(=N)[nH]3)C2SC1 (stereo not drawn) [Example II - 19] | 12.5 | 12.5 | 6.25 | 3.13 | 0.1 | 0.39 | 3.13 | 100 | > 100 | 3.13 | 100 | 25 | 6.25 | 25 | 25 | 50 | 12.5 | 50 |
| CC(C)NC(=O)O/N=C(\C(=O)NC1C(=O)N2C(C(=O)O)=C(CSc3nnnn3C)CSC12)c1csc(=N)[nH]1 (stereo not drawn) [Example II - 18] | 0.78 | 0.39 | 1.56 | 0.1 | ≤ 0.012 | 0.2 | 0.39 | 3.13 | 3.13 | 0.024 | 3.13 | 3.13 | 0.2 | 1.56 | 3.13 | 0.78 | 0.1 | 25 |
| CC(C)NC(=O)O/N=C(\C(=O)NC1C(=O)N2C(C(=O)O)=C(COC(N)=O)CSC12)c1csc(=N)[nH]1 (stereo not drawn) [Example II - 17] | 0.78 | 0.39 | 0.39 | 0.1 | ≤ 0.012 | 0.1 | 0.1 | 6.25 | 25 | 0.05 | 6.25 | 3.13 | 0.39 | 1.56 | 3.13 | 1.56 | 0.39 | 100 |

From patent publication US4200575A, “7[(2-Thiazolyl)-2-(oxoimino)acetamido]cephalosporin derivatives” (Takeda Chemical Industries, Ltd., priority 1977, dated 1980)
